Columns and labels:
[1] = target: recombinant human PDE5 (Homo sapiens, UniProt O76074); assay: Inhibitory effect on cGMP-PDE (PDE5 IC50 determination); format: biochemical; settings: in vitro
Experimental: The compounds of structural formula (I) were tested for an ability to inhibit PDE5. The ability of a compound to inhibit PDE5 activity is related to the IC50 value for the compound, i.e., the concentration of inhibitor required for 50% inhibition of enzyme activity. The IC50 value for compounds of structural formula (I) were determined using recombinant human PDE5.
Phosphodiesterase activity of the preparations was determined as follows. PDE assays utilizing a charcoal separation technique were performed essentially as described in Loughney et al. (1996). In this assay, PDE activity converts [32P]cAMP or [32P]cGMP to the corresponding [32P]5′-AMP or [32P]5′-GMP in proportion to the amount of PDE activity present. The [32P]5′-AMP or [32P]5′-GMP then was quantitatively converted to free [32P]phosphate and unlabeled adenosine or guanosine by the action of snake venom 5′-nucleotidase. […] The assay was performed at 30° C. in a 100 μL reaction mixture containing (final concentrations) 40 mM Tris HCl (pH 8.0), 1 μM ZnSO4, 5 mM MgCl2, and 0.1 mg/mL bovine serum albumin (BSA). PDE enzyme was present in quantities that yield <30% total hydrolysis of substrate (linear assay conditions). The assay was initiated by addition of substrate ([…] [32P]cAMP or cGMP), and the mixture was incubated for 12 minutes. seventy-five (75) μg of Crotalus atrox venom then was added, and the incubation was continued for 3 minutes (15 minutes total). The reaction was stopped by addition of 200 μL of activated charcoal (25 mg/mL suspension in 0.1 M NaH2PO4, pH 4). After centrifugation (750×g for 3 minutes) to sediment the charcoal, a sample of the supernatant was taken for radioactivity determination in a scintillation counter and the PDE activity was calculated.
cGMP-PDE activity of compounds of the present invention was measured using a one-step assay adapted from Wells et al., Biochim. Biophys. Acta, 384, 430 (1975). The reaction medium contained 50 mM Tris-HCl, pH 7.5, 5 mM magnesium acetate, 250 μg/ml 5′-Nucleotidase, 1 mM EGTA, and 0.15 μM 8-[H^3]-cGMP. Unless otherwise indicated, the enzyme used was a human recombinant PDE5 (ICOS Corp., Bothell, Wash.).
Compounds of the invention were dissolved in DMSO finally present at 2% in the assay.

| SMILES | IC50 [1] | melting point |
| --- | --- | --- |
| CN1CC(=O)N2[C@H](c3ccc4c(c3)OCO4)c3c(c4ccccc4n3C)C[C@H]2C1=O [Example 1, (6R,12aS)-6-Benzo[1,3]dioxol-5-yl-2,7-dimethyl-2,3,6,7,12,12a-hexahydropyrazino[1′,2′:1,6]-pyrido[3,4-b]indole-1,4-dione] | 124 nM | 386 to 387 °C |
| CN1CC(=O)N2[C@H](c3ccc4c(c3)OCO4)c3c(c4ccccc4n3C)C[C@@H]2C1=O [Example 2, (6R,12aR)-6-Benzo[1,3]dioxol-5-yl-2,7-dimethyl-2,3,6,7,12,12a-hexahydropyrazino[1′,2′:1,6]-pyrido[3,4-b]indole-1,4-dione] | 571 nM | – |
| CN1CC(=O)N2[C@H](c3ccc4c(c3)OCO4)c3c(c4ccccc4n3Cc3ccccc3)C[C@H]2C1=O [Example 3, (6R,12aS)-6-Benzo[1,3]dioxol-5-yl-7-benzyl-2-methyl-2,3,6,7,12,12a-hexahydropyrazino-[1′,2′:1,6]pyrido[3,4-b]indole-1,4-dione] | 313 nM | 110 to 145 °C |
| CC(=O)n1c2c(c3ccccc31)C[C@@H]1C(=O)N(C)CC(=O)N1[C@@H]2c1ccc2c(c1)OCO2 [Example 4, (6R,12aR)-7-Acetyl-6-benzo[1,3]dioxol-5-yl-2-methyl-2,3,6,7,12,12a-hexahydropyrazino-[1′,2′:1,6]pyrido[3,4-b]indole-1,4-dione] | 7 nM | 145 to 159 °C |

Source: US7098209B2, “Pyrazino [1'2':1,6 ] pyrido [3, 4-b] indole-1,4-dione derivatives” (Lilly Icos LLC, priority 2001, dated 2006)
